The record followed here is patent publication USRE39681E1, “1-(4-sulfamyaryl)-3-substituted-5-aryl-2-pyrazolines and inhibitors of cyclooxygenase-2” (Temple University - of the Commonwealth System of Higher …, priority 1999, dated 2007).

Assay [1] is described as follows: Cyclooxygenase enzyme assay (TLC method), COX-1. It is filed as biochemical, ovine. Particulars: second column headed COX-2; preincubation 90-120 min, [1-14C] arachidonic acid 50 μM; read-out: Inhibition of Cyclooxygenase Activity IC50 COX-2. As for the experimental part:
Cyclooxygenase activity of ovine COX-1 (Oxford Biomedical Research Inc.) and human recombinant COX-2 (Oxford Biomedical Research Inc.) was assayed by a thin layer chromatography (TLC) method as follows. All inhibitors were dissolved in dimethyl sulfoxide to a stock solution of 5mM. Human recombinant COX-2 (3 units) or ovine COX-1 (15 units) was incubated with inhibitors at several concentrations in a solution containing 100 mM Tris-HCl, pH7.8, 500 μM phenol and hematin for 90 to 120 minutes at room temperature (24° C.). In controls, equal volumes of DMSO without drug were added to the incubation mixture. After incubation for 90-120 minutes, [1-^14C] arachidonic acid (50 μM, 51 mCi/mmol) (DuPont NEN) was added and incubated at 37° C. for 2 minutes. The reaction was terminated by extraction with 1 ml of ethyl acetate. The ethyl acetate layer was transferred into a fresh tube and evaporated to dryness in a Speedvac vacuum dryer. The contents of the tubes were reconstituted in […] of ethyl acetate and spotted on a TLC plate (J. T. Baker, Philipsburg, N.J.) and developed in a mobile phase containing chloroform/methanol (95:5) at 4° C. Radiolabeled prostanoid compounds (the products of COX enzymatic reaction with radiolabeled arachidonic acid substrate) were quantitated with a radioactivity scanner (Fuji, Phosphorimager). […]

The test system of another assay is DLD-1 cells. Put plainly: Soft agar assay, colony growth. It counts as cell-based, human. Particulars: highest concentration tested (range 10 μM to 75 μM), one dose, stained 20 days later, FIG. 1. The method, then: The Example 1 and 24 compounds were compared to the COX-2 inhibitor celecoxib in inhibiting the growth of DLD-1 cells in soft agar. DLD-1 cells are human colorectal carcinoma cells that overexpress COX-2. DLD-1 cells grow in soft agar and form tumors in nude mice. The soft agar assay was performed as follows. A layer of bottom agar ([…]) was placed onto 60 mm^2 tissue culture dishes. The tumor cells were trypsinized from normal growth flasks while in exponential growth. The cells were counted by using a hemacytometer and 1.0×10^5 cells were placed into the top agar mixture containing growth medium, 4% noble agar and various concentrations of drugs. The concentration range was normally between 10 μM to 75 μM. The cells were not refed during the assay system; therefore, the cells were treated with one dose of the agents. The plates were stained 20 days later with a 0.05% (w/v) nitroblue tetrazolium solution (which stains only viable cells) for 48 hours. The results are shown in FIG. 1, the y-axis being the percent of cell colonies remaining in comparison to untreated control cells.

In general, IC50 refers to the concentration that gives 50% inhibition. Take `NS(=O)(=O)c1ccc(N2N=C(C(F)(F)F)CC2c2c[nH]c3ccccc23)cc1` (stereo not shown) [Example 24, 1-(4-Sulfamylphenyl)-3-trifluoromethyl-5-(3-indolyl)-2-pyrazoline]: in assay [1], the IC50 is less than 100 µM. Moreover, in the assay on DLD-1 cells, the “inhibition of DLD-1 cell colony growth in soft agar” value came out at 100%.

For the molecule `NS(=O)(=O)c1ccc(N2N=C(C(F)(F)F)CC2c2ccccc2)cc1` (stereo not shown) [Example 1, 1-(4-Sulfamylphenyl)-3-trifluoromethyl-5-phenyl-2-pyrazoline], the concentration for half-maximal inhibition (IC50) in assay [1] was less than 100 µM. In addition, the “inhibition of DLD-1 cell colony growth in soft agar” value in the assay on DLD-1 cells was determined as 100%.
